Toxic doses and inconclusive results are not listed.
Tested on: CD2F1 mice, ip Colon 26 adenocarcinoma, median survival T/C
Test: NCI In Vivo Anticancer Drug Screen. Data for tumor model Colon 26 Adenocarcinoma (intraperitoneal) in CD2F1 (CDF1) mice
Conditions: endpoint: median survival time, higher = longer survival
Description: The antitumor activity of compounds was measured in mice bearing transplantable tumors. Survival or tumor size were measured and the results are expressed as the measurement made in the treated group (T) divided by the measurement made in the vehicle treated control group (C). The tumor model used in this assay is Colon 26 Adenocarcinoma (intraperitoneal) in CD2F1 (CDF1) mice

[1] = dose: 100.0 mg/kg/injection, schedule: Q04DX003 (ip), vehicle: Klucel (hydroxypropylcellulose) (HPC)
[2] = dose: 200.0 mg/kg/injection, schedule: Q04DX003 (ip), vehicle: Klucel (hydroxypropylcellulose) (HPC)
[3] = dose: 25.0 mg/kg/injection, schedule: Q04DX003 (ip), vehicle: Klucel (hydroxypropylcellulose) (HPC)

CN(C)/N=N/c1nc[nH]c1C(N)=O
T/C (dose: 25.0 mg/kg/injection, schedule: Q04DX003 (ip), vehicle: carboxymethylcellulose (CMC)): 112 % of control
T/C (dose: 50.0 mg/kg/injection, schedule: Q04DX003 (ip), vehicle: carboxymethylcellulose (CMC)): 120 % of control
T/C (dose: 100.0 mg/kg/injection, schedule: Q04DX003 (ip), vehicle: carboxymethylcellulose (CMC)): 122 % of control
T/C (dose: 240.0 mg/kg/injection, schedule: Q01DX001 (ip), vehicle: Klucel (hydroxypropylcellulose) (HPC)): 95 % of control
T/C (dose: 400.0 mg/kg/injection, schedule: Q01DX001 (ip), vehicle: Klucel (hydroxypropylcellulose) (HPC)): 92 % of control
T/C (dose: 400.0 mg/kg/injection, schedule: Q04DX003 (ip), vehicle: carboxymethylcellulose (CMC)): 116 % of control
T/C (dose: 600.0 mg/kg/injection, schedule: Q01DX001 (ip), vehicle: Klucel (hydroxypropylcellulose) (HPC)): 61 % of control

COc1cc([C@@H]2c3cc4c(cc3[C@@H](OC3OC5CO[C@@H](c6cccs6)OC5C(O)C3O)[C@H]3COC(=O)[C@H]23)OCO4)cc(OC)c1O (some centres undefined)
T/C (dose: 5.0 mg/kg/injection, schedule: Q03DX002 (ip), vehicle: other): 90 % of control
T/C (dose: 10.0 mg/kg/injection, schedule: Q03DX002 (ip), vehicle: other): 92 % of control
T/C (dose: 30.0 mg/kg/injection, schedule: Q03DX002 (ip), vehicle: other): 104 % of control

CN(C)CCCNc1c2ccccc2nc2cccc([N+](=O)[O-])c12
T/C (dose: 0.02 mg/kg/injection, schedule: Q07DX002 (iv), vehicle: saline with Tween-80): 105 % of control
T/C (dose: 0.04 mg/kg/injection, schedule: Q07DX002 (iv), vehicle: saline with Tween-80): 107 % of control
T/C (dose: 0.07 mg/kg/injection, schedule: Q07DX002 (iv), vehicle: saline with Tween-80): 108 % of control
T/C (dose: 0.12 mg/kg/injection, schedule: Q07DX002 (iv), vehicle: saline with Tween-80): 106 % of control
T/C (dose: 0.3 mg/kg/injection, schedule: Q07DX002 (iv), vehicle: saline with Tween-80): 101 % of control
T/C (dose: 0.46 mg/kg/injection, schedule: Q07DX002 (iv), vehicle: saline with Tween-80): 100 % of control

CCOC(=O)C1C2OC(=O)C(C(=O)C2CN(CCCl)CCCl)C1C1CC=C(CC2=CCC(C3C4C(=O)OC(C(CN(CCCl)CCCl)C4=O)C3C(=O)OCC)CC2)CC1 (centres undefined)
T/C [1]: 216 % of control
T/C [2]: 232 % of control

O=[N+]([O-])/C=C\c1ccc2c(c1)OCO2
T/C (dose: 3.12 mg/kg/injection, schedule: Q04DX003 (ip), vehicle: Klucel (hydroxypropylcellulose) (HPC)): 87 % of control
T/C (dose: 6.25 mg/kg/injection, schedule: Q04DX003 (ip), vehicle: Klucel (hydroxypropylcellulose) (HPC)): 105 % of control
T/C [3]: 90 % of control

C#C[C@]1(O)CC[C@H]2[C@@H]3CCc4cc(O)ccc4[C@H]3CC[C@@]21C
T/C [3]: 103 % of control
T/C (dose: 50.0 mg/kg/injection, schedule: Q04DX003 (ip), vehicle: Klucel (hydroxypropylcellulose) (HPC)): 100 % of control
T/C [1]: 96 % of control
T/C [2]: 90 % of control
T/C (dose: 400.0 mg/kg/injection, schedule: Q04DX003 (ip), vehicle: Klucel (hydroxypropylcellulose) (HPC)): 86 % of control

COc1cccc2c1C(=O)c1c(O)c3c(c(O)c1C2=O)C[C@@](O)(C(C)=O)C[C@@H]3OC1CC(N(C)C)C(O)C(C)O1 (some centres undefined)
T/C (dose: 4.5 mg/kg/injection, schedule: Q07DX002 (iv), vehicle: saline): 109 % of control
T/C (dose: 5.4 mg/kg/injection, schedule: Q04DX003 (ip), vehicle: water): 119 % of control
T/C (dose: 7.0 mg/kg/injection, schedule: Q07DX002 (iv), vehicle: saline): 114 % of control
T/C (dose: 11.0 mg/kg/injection, schedule: Q07DX002 (iv), vehicle: saline): 113 % of control
T/C (dose: 15.0 mg/kg/injection, schedule: Q04DX003 (ip), vehicle: water): 88 % of control
T/C (dose: 18.0 mg/kg/injection, schedule: Q07DX002 (iv), vehicle: saline): 109 % of control
T/C (dose: 27.0 mg/kg/injection, schedule: Q07DX002 (iv), vehicle: saline): 108 % of control
T/C (dose: 41.0 mg/kg/injection, schedule: Q07DX002 (iv), vehicle: saline): 94 % of control
